Data: US20250235448A1, “COMBINATION THERAPY FOR TREATING CANCER” (AstraZeneca AB, priority 2022, published 2025)
Where two headings read alike, the source gives them in different places.

Experiments:
CWR22Pc-R1-AD1 = assay: Cell proliferation / viability assay (7 days after treatment), AC50 and HSA combination benefit; assay type: cell-based
Method: (§1) The following cell lines were originally obtained from ATCC:
Cell line identification was validated using the CellCheck assay (IDEXX Bioanalytics, Westbrook, ME, USA). All cell lines were validated free of virus Mycoplasma contamination using the MycoSEQ assay (Thermo Fisher Scientific, Waltham, MA, USA) or STAT-Myco assay (IDEXX Bioanalytics).
Live cell count pre- and post-treatment (7 days after treatment) was determined using CellTiter-Glo as per manufacturer's instructions (Promega, Madison, WI, USA; G7570).

LnCAP = assay: as above; assay type: cell-based; conditions: Homo sapiens; LnCAP (mHSPC) cells; monotherapy; mean of two independent experiments each in triplicate
Method: as §1
(§2) Cell line identification was validated using the CellCheck assay (IDEXX Bioanalytics, Westbrook, ME, USA). All cell lines were validated free of virus Mycoplasma contamination using the MycoSEQ assay (Thermo Fisher Scientific, Waltham, MA, USA) or STAT-Myco assay (IDEXX Bioanalytics). All cell lines were grown RPMI-1640 growth media (Corning 17-105-CV) supplemented with 10% fetal bovine serum (FBS) or, when indicated, 10% charcoal stripped FBS (ThermoFisher Scientific, 12676029) and 2 mM glutamine.
(§3) Cells in 384-well or 96-well plates were dosed using an Echo 555 (LabCyte, San Jose, CA, USA) or using the HP D300e Digital Dispenser (HP Life Science Dispensing), respectively. Live cell count pre- and post-treatment (7 days after treatment) was determined using CellTiter-Glo as per manufacturer's instructions (Promega, Madison, WI, USA; G7570).
(§4) Cell viability was determined with the Sytox Green assay as described in Davies 2012 and the AC50 calculated. The HSA (Highest Single Agent) Synergy Score was calculated according to Bernenbaum 1989.

LnCAP 95 = assay: as above; assay type: cell-based; conditions: LnCAP 95 (mCRPC) cells; monotherapy; mean of two independent experiments each in triplicate
Method: as §1, §2, §3, §4

non-metastatic CRPC = conditions: patients with non-metastatic CRPC, ARAMIS trial; placebo 18.5 months; cited from earlier work
CYP3A4 = conditions: literature statement (Gibbons 2015, Dirix 2016); cited from earlier work

| SMILES | AC50 (CWR22Pc-R1-AD1; CWR22Pc-R1-AD1 (mCRPC) cells, monotherapy, mean of two independent experiments each in triplicate, read-out: AC50) [nM] | AC50 (LnCAP) [nM] | AC50 (LnCAP 95) [nM] | AC50 (CWR22Pc-R1-AD1) [nM] | metastasis free survival (non-metastatic CRPC) [months] | CYP3A4 interaction (inducer / substrate) (CYP3A4) |
| --- | --- | --- | --- | --- | --- | --- |
| CCc1cc2ncc(CN3CCN(c4ccc(C(=O)NC)nc4)CC3)cc2[nH]c1=O [AZD5305, 5-{4-[(7-ethyl-6-oxo-5,6-dihydro-1,5-naphthyridin-3-yl)methyl]piperazin-1-yl}-N-methylpyridine-2-carboxamide] | 5.66 | 285 | 700 |  |  |  |
| CC(O)c1cc(C(=O)N[C@@H](C)Cn2ccc(-c3ccc(C#N)c(Cl)c3)n2)n[nH]1 (stereo partly drawn) [Darolutamide, N—((S)-1-(3-(3-chloro-4-cyanophenyl)-1H-pyrazol-1-yl)propan-2-yl)-5-(1-hydroxyethyl)-1H-pyrazole-3-carboxamide] |  | 3630 | 17500 | 65.5 | 40.4 |  |
| O=C(c1cc(Cc2n[nH]c(=O)c3ccccc23)ccc1F)N1CCN(C(=O)C2CC2)CC1 [Olaparib] |  |  |  |  |  | substrate of CYP3A4 |
| CNC(=O)c1ccc(N2C(=S)N(c3ccc(C#N)c(C(F)(F)F)c3)C(=O)C2(C)C)cc1F [enzalutamide] |  |  |  |  |  | strong CYP3A4 inducer |
